Like-named read-outs stand apart in the source and are kept apart here. Values belong to the compound of their own block, whether it stands above or below them.
Experiments:
[1] = molecular target: Cu^2+–Aβ42 species (Homo sapiens, UniProt P05067); experiment: H2O2 production, HRP/Amplex Red assay; type: biochemical; settings: reducing conditions (sodium ascorbate)
[2] = test system: Neuro2A (N2A) cells; experiment: Cytotoxicity, Alamar Blue cell viability assay; type: cell-based, Mouse
[3] = pH 7.4; 1:1 metal:ligand, 50 μM each; ref [78]; cited from earlier work
[4] = 1:1 metal:ligand, 50 μM each, ref [78], cited from earlier work

Cu^2+–Aβ42 species, sequence (P05067 672-713 limits assumed): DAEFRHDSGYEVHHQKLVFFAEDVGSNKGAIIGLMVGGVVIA

Structure (SMILES): O=C(O)CN(CCN(CC(=O)O)CC(=O)O)CC(=O)O [EDTA, ethylenediaminetetraacetic acid]
- Cell survival ([2]; up to 20 μM concentration): 90–95%

Structure (SMILES): O=C(O)CN(CCN(CC(=O)O)CC(=O)O)CCN(CC(=O)O)CC(=O)O [DTPA, diethylenetriaminepentaacetic acid]
- pZn (−log[Zn^2+]free) [3]: 9.3
- pCu (−log[Cu^2+]free) ([4]; pH 6.6): 9.7
- pCu (−log[Cu^2+]free) ([4]; pH 7.4): 10.7

The next lines start with results.

- Reduction of H2O2 production by Cu–Aβ42 species [1]: almost no effect
Structure (SMILES): c1cnc2c(c1)ccc1cccnc12 [phen, phenanthroline]

- Reduction of H2O2 production by Cu–Aβ42 species [1]: almost no effect
Structure (SMILES): Oc1c(I)cc(Cl)c2cccnc12 [CQ, clioquinol]
- Cell survival, disaggregation conditions ([2]; Aβ42 fibrils 20 μM + compound 2 μM + Cu^2+ 20 μM): marked cell toxicity
- Cell survival ([2]; concentrations >2 μM): < 30%

- Reduction of H2O2 production by Cu–Aβ42 species [1]: dramatic reduction
Structure (SMILES): CN(Cc1ccccn1)Cc1ccccn1 [L*, N-methyl-N,N-bis(2-pyridylmethyl)amine]
